Data taken from the supplement of paper PMC7600603.

Key:
DLD1 NRF2-GOF [1] = test: drug sensitivity score (DSS) viability (DSS score); higher = more sensitive; extreme values may be limits of the assay; conditions: 72 h; CellTiter-Glo viability
How it was run: (§1)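 Library compounds were tested in 384-well plates at 5 concentrations covering a 10,000-fold span against isogenic DLD1 colorectal cancer cells, NRF2 wild-type or CRISPR gain-of-function, grown in DMEM with 10% FBS. Viability was measured at 72 h with CellTiter-Glo on a Pherastar FS reader, relative to vehicle wells and 100-μM positive-control wells. EC50 and drug sensitivity score (normalised area under the curve) were derived from logistic dose-response curves fitted with four parameters.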

DLD1 NRF2-GOF [2] = test: TC50 cytotoxicity; higher = less toxic; conditions: 72 h; CellTox Green cytotoxicity
How it was run: (§2)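 Isogenic DLD1 colorectal cancer cells differing in NRF2 status, one line edited by CRISPR, were cultured in DMEM with 10% FBS and treated in 384-well plates with library compounds at 5 concentrations spanning a 10,000-fold range. Plates were read after 72 h with CellTox Green on a Pherastar FS reader, and signals were normalised to vehicle wells and 100-μM positive-control wells. Cytotoxicity was summarised as TC50 and as a drug sensitivity score, a normalised area under the curve, both from logistic dose-response fits.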

DLD1 NRF2-WT [3] = test: TC50 cytotoxicity; higher = less toxic; conditions: 72 h; CellTox Green cytotoxicity
How it was run: as §2

DLD1 NRF2-GOF [4] = test: drug sensitivity score (DSS) cytotoxicity (DSS score); higher = more toxic; extreme values may be limits of the assay; conditions: 72 h; CellTox Green cytotoxicity
How it was run: as §2

DLD1 NRF2-WT [5] = test: as above; conditions: 72 h; CellTox Green cytotoxicity
How it was run: as §2

DLD1 NRF2-WT [6] = conditions: 72 h; CellTiter-Glo viability
How it was run: as §1

DLD1 NRF2-WT [7] = test: drug sensitivity score (DSS) viability (DSS score); higher = more sensitive; extreme values may be limits of the assay; conditions: 72 h; CellTiter-Glo viability
How it was run: as §1

Compound	drug sensitivity score (DLD1 NRF2-GOF [1])	TC50 cytotoxicity (DLD1 NRF2-GOF [2])	TC50 cytotoxicity (DLD1 NRF2-WT [3])	drug sensitivity score (DLD1 NRF2-GOF [4])	drug sensitivity score (DLD1 NRF2-WT [5])	EC50 viability (DLD1 NRF2-WT [6])	drug sensitivity score (DLD1 NRF2-WT [7])
CONC(=O)c1ccccc1Nc1cc(Nc2cc(C)nn2C(C)C)ncc1Cl	1.6	> 1 µM	> 1 µM	0	0		
COc1cc2ncnc(Oc3cccc(NC(=O)Nc4cc(C(C)(C)C(F)(F)F)on4)c3)c2cc1OC	0.6	> 10 µM	> 10 µM	0	0	> 10 µM	1.4
Cc1nn(C)c(COc2ccc(N3CCN(S(=O)(=O)N(C)C)CC3)cc2)c1-c1cccc2c(CCCOc3cccc4ccccc34)c(C(=O)O)n(CCN3CCOCC3)c12	2.1	> 50 µM	> 50 µM	0	0	> 50 µM	1.9
O=C1Cc2cc(C(=O)NC3C[C@H]4CC[C@@H](C3)N4S(=O)(=O)CC3CCN(CCCC(F)(F)F)CC3)c(Cl)cc2N1 (stereo partly specified)	4.1	> 10 µM	> 10 µM	0	0	> 10 µM	0
O=c1[nH]c(C2CCCN2)nc2c1oc1ccc(Cl)cc12 (stereo unspecified)	0.7	> 10 µM	> 10 µM	0	0	> 10 µM	0.9
C[C@@H](Nc1cc(F)cc(F)c1)c1cc(C(=O)N(C)C)cc2c(=O)cc(N3CCOCC3)oc12 [AZD-8186]	5.2	> 1 µM	> 1 µM	0	0	0.0598 µM	3.6
CC[C@H](NC(=O)[C@H](C)NC)C(=O)N1C[C@@H](O)C[C@H]1Cc1c(-c2[nH]c3cc(F)ccc3c2C[C@@H]2C[C@H](O)CN2C(=O)[C@H](CC)NC(=O)[C@H](C)NC)[nH]c2cc(F)ccc12 [Birinapant]		> 1 µM	> 1 µM	0	0	> 1 µM	0.1
Cc1c(N)nc([C@H](CC(N)=O)NC[C@H](N)C(N)=O)nc1C(=O)N[C@H](C(=O)N[C@H](C)[C@@H](O)[C@H](C)C(=O)N[C@H](C(=O)NCCc1nc(-c2nc(C(=O)NCCC[S+](C)C)cs2)cs1)[C@@H](C)O)[C@@H](O[C@@H]1O[C@@H](CO)[C@@H](O)[C@H](O)[C@@H]1O[C@H]1O[C@H](CO)[C@@H](O)[C@H](OC(N)=O)[C@@H]1O)c1c[nH]cn1 [Bleomycin]	2.6	> 10 µM	> 10 µM	0	0	> 10 µM	0.4
CC(C)C[C@H](NC(=O)[C@H](Cc1ccccc1)NC(=O)c1cnccn1)B(O)O [Bortezomib]		0.0117 µM	0.0057 µM	23.1	27.2	0.0058 µM	27.1
CC1=NN(c2ccc(C(=O)O)cc2)C(=O)C1=Cc1ccc(-c2cc(C)c(C)cc2[N+](=O)[O-])o1 [C646]		> 25 µM	> 25 µM	0	0	5.03 µM	2.8
Cc1nc2cccc(N)c2c(=O)n1C1CCC(=O)NC1=O (stereo unspecified) [CC122]	2.7	> 10 µM	> 10 µM	0	0	> 10 µM	3.2
COc1ccc(-c2nc(N3CCOCC3)c3sc(CN(C)c4ncc(C(=O)NO)cn4)cc3n2)cn1 [CUDC-907]		0.509 µM	0.105 µM	6.9	14.6	0.0334 µM	29.8
Nc1cc(F)ccc1NC(=O)c1ccc(CNC(=O)/C=C/c2cccnc2)cc1 [Chidamide]		> 10 µM	> 10 µM	0	0	> 10 µM	0.6
C=C1C[C@@H]2CC[C@@]34C[C@H]5O[C@H]6[C@@H](O3)[C@H]3O[C@H](CC[C@@H]3O[C@H]6[C@H]5O4)CC(=O)C[C@@H]3[C@@H](OC)[C@@H](C[C@H](O)CN)O[C@H]3C[C@H]3O[C@@H](CC[C@@H]1O2)C[C@@H](C)C3=C [Eribulin]		> 1 µM	> 1 µM	4.4	3.3	0.0051 µM	22.6
Cc1ccc(NC(=O)c2ccc(CN3CCN(C)CC3)cc2)cc1Nc1nccc(-c2cccnc2)n1 [Imatinib]		> 10 µM	> 10 µM	0	0	4.5 µM	1.2
CC(C)NC[C@@H](C(=O)N1CCN(c2ncnc3c2[C@H](C)C[C@H]3O)CC1)c1ccc(Cl)cc1 [Ipatasertib]		> 10 µM	> 10 µM	0	0	> 10 µM	1.3
CCC(C)n1ncn(-c2ccc(N3CCN(c4ccc(OCC5COC(Cn6cncn6)(c6ccc(Cl)cc6Cl)O5)cc4)CC3)cc2)c1=O (stereo unspecified) [Itraconazole]		> 5 µM	> 5 µM	0	0	> 5 µM	0.4
O=C(CCNC(=O)c1ccc(OC(F)(F)F)cc1)N[C@@H]1CCCc2ccccc21 [ML390]		> 50 µM	> 50 µM	0	0	> 50 µM	1.9
O=C(Nc1cccc(NC(=O)c2cccc(O)c2O)c1)c1cccc(O)c1O [MST-312]		> 10 µM	> 10 µM	0	0	0.238 µM	10.4
C[C@H]1C[C@@H]2[C@H]([C@@H](O)C[C@@]3(C)[C@H]2CC[C@]3(O)C(=O)CO)[C@@]2(C)C=CC(=O)C=C12 [Methylprednisolone]	2.9	> 10 µM	> 10 µM	0	0		
CCCCCCCCCCCCCCCCOP(=O)([O-])OCC[N+](C)(C)C [Miltefosine]		10.4 µM	7.4 µM	9.7	11	7.67 µM	13.1
CCS(=O)(=O)Nc1ccc(Oc2ccc(F)cc2F)c(-c2cn(C)c(=O)c3[nH]ccc23)c1 [Mivebresib]		> 10 µM	> 10 µM	0	0	0.102 µM	14.7

Compound	drug sensitivity score (DLD1 NRF2-GOF [1])	TC50 cytotoxicity (DLD1 NRF2-GOF [2])	TC50 cytotoxicity (DLD1 NRF2-WT [3])	drug sensitivity score (DLD1 NRF2-GOF [4])	drug sensitivity score (DLD1 NRF2-WT [5])	EC50 viability (DLD1 NRF2-WT [6])	drug sensitivity score (DLD1 NRF2-WT [7])
Nc1ccccc1NC(=O)c1ccc(CNc2nccc(-c3cccnc3)n2)cc1 [Mocetinostat]		> 10 µM	> 10 µM	0	1.6	3.29 µM	4
COc1cc2c(cc1OC(C)C)[C@H](c1ccc(Cl)cc1)N(c1ccc(N(C)C[C@H]3CC[C@H](N4CCN(C)C(=O)C4)CC3)cc1)C(=O)C2 [NVP-CGM097]		> 25 µM	> 25 µM	0	0	2.38 µM	3.4
CC1(C)CCC(c2ccc(Cl)cc2)=C(CN2CCN(c3ccc(C(=O)NS(=O)(=O)c4ccc(N[C@H](CCN5CCOCC5)CSc5ccccc5)c(S(=O)(=O)C(F)(F)F)c4)cc3)CC2)C1 [Navitoclax]		1.89 µM	1.55 µM	2.1	4	3.95 µM	2.1
C=CC(=O)Nc1cccc(Oc2nc(Nc3ccc(N4CCN(C)CC4)cc3)nc3ccsc23)c1 [Olmutinib]	2.8	> 1 µM	> 1 µM	0	0		2.6
OC[C@H]1O[C@@H](n2cnc3c2N=CNC[C@H]3O)C[C@@H]1O [Pentostatin]	1.6					1.86 µM	2.5
CCCCCCCCCCCCCCCCCCOP(=O)([O-])OC1CC[N+](C)(C)CC1 [Perifosine]		> 2.5 µM	> 2.5 µM	0.6	0.9	> 2.5 µM	0.3
CO[C@H](C(=O)[C@@H](O)[C@@H](C)O)[C@@H]1Cc2cc3cc(O[C@H]4C[C@@H](O[C@H]5C[C@@H](O)[C@H](O)[C@@H](C)O5)[C@@H](O)[C@@H](C)O4)c(C)c(O)c3c(O)c2C(=O)[C@H]1O[C@H]1C[C@@H](O[C@H]2C[C@@H](O[C@H]3C[C@](C)(O)[C@H](O)[C@@H](C)O3)[C@H](O)[C@@H](C)O2)[C@H](O)[C@@H](C)O1 [Plicamycin]		> 10 µM	> 10 µM	0	1.7	0.119 µM	21.8
CC[C@H](C)C(=O)O[C@H]1C[C@H](O)C=C2C=C[C@H](C)[C@H](CC[C@@H](O)C[C@@H](O)CC(=O)O)[C@H]21 [Pravastatin]		> 10 µM	> 10 µM	0	0	> 10 µM	0
C[C@]12C=CC(=O)C=C1CC[C@@H]1[C@@H]2[C@@H](O)C[C@@]2(C)[C@H]1CC[C@]2(O)C(=O)CO [Prednisolone]	1	> 10 µM	> 10 µM	0	0		
Cc1nc(C(=O)NCC(=O)O)c(O)c2ccc(Oc3ccccc3)cc12 [Roxadustat]		> 10 µM	> 10 µM	0	0	1.69 µM	2.5
CNCc1ccc(-c2[nH]c3cc(F)cc4c3c2CCNC4=O)cc1 [Rucaparib]	2.7	> 10 µM	> 10 µM	0	0		0.8
COc1ccc(CCc2nc3cc(-c4c(C)noc4C)ccc3n2C[C@H](C)N2CCOCC2)cc1Cl [SGC-CBP30]		> 25 µM	> 25 µM	0.2	0.8	9.91 µM	2.2
CN1CCC(CNc2ccc3ncc(-c4cccc(OC(F)(F)F)c4)n3n2)CC1 [SGI-1776]		3.14 µM	2.68 µM	3.1	4.5	3.47 µM	5
CC[C@H](CO)Nc1nc(NCc2ccccc2)c2ncn(C(C)C)c2n1 [Seliciclib]		> 10 µM	> 10 µM	0	0	4.17 µM	1.1
Clc1ccccc1C(c1ccccc1)(c1ccccc1)n1cccn1 [TRAM-34]	6.4					> 1 µM	2.2
COc1cc(Nc2ncc(F)c(Nc3ccc4c(n3)NC(=O)C(C)(C)O4)n2)cc(OC)c1OC [Tamatinib]		> 10 µM	> 10 µM	0	0	> 10 µM	1
CC/C(=C(\c1ccccc1)c1ccc(OCCN(C)C)cc1)c1ccccc1 [Tamoxifen]		> 10 µM	> 10 µM	0	0	4.36 µM	2
CNC(=O)c1cc(COc2nnc(Nc3ccc(Cl)cc3)c3ccoc23)ccn1 [Telatinib]	2.6	> 10 µM	> 10 µM	0	0		6.9
CC(=O)Nc1cccc(-n2c(=O)n(C3CC3)c(=O)c3c(Nc4ccc(I)cc4F)n(C)c(=O)c(C)c32)c1 [Trametinib]		> 0.25 µM	> 0.25 µM	0	0	0.037 µM	3.1
C=CC(=O)N1CC/C(=C\c2ccc(F)c([N+](=O)[O-])c2)C(=O)/C(=C/c2ccc(F)c([N+](=O)[O-])c2)C1 [VLX1570]		5.34 µM	0.0677 µM	2.7	21.9	0.0504 µM	27.9
COc1cc2/c(=N/c3ccc(Br)cc3F)nc[nH]c2cc1OCC1CCN(C)CC1 [Vandetanib]	2.3	> 1 µM	> 1 µM	0	0		6.9
